Melting point data for 88 compounds are collected here from a melting point compilation (Tetko et al.; mined from patent text by program, amines drawn as free bases though some values may be those of a salt).

Each structure is given as a SMILES string. Some results are limits rather than exact numbers.

The term melting point denotes the temperature of the solid-liquid transition. `CC(C)(C)c1cc(CCC(=O)ON(Cc2ccccc2)Cc2ccccc2)cc(C(C)(C)C)c1O` came in with a melting point of 93 to 95.5 °C.

In turn, `CCOC=Nn1c(NC)n[nH]c1=O` came in with a melting point of 169 °C. Under `CN1C(=O)SC(C)(C)[C@@H]1[C@@H](CS(=O)(=O)c1ccc(Oc2ccc(OC(F)(F)F)cc2)cc1)N(O)C=O` stands 84 to 86 °C. Under `COc1c(N2CCC(NC3CC3)C(C)C2)c(F)c(N)c2c(=O)c(C(=O)O)cn(C3CC3)c12` (stereo not drawn) stands 218 to 220 °C; under `CC(=O)C(=Cc1ccc(C=O)c([N+](=O)[O-])c1)C(C)=O`, 102 to 104 °C. Under `COCCNC(=O)c1cccc(-c2cccc3cc(Cc4cccc(C(F)(F)F)c4)sc23)c1` stands 113 to 114 °C. `Cc1[nH]c(C(=O)N2CCC(C(=O)NCCN(C)C)CC2)c(C)c1-c1nc2ccc(C(=O)c3ccccc3)cc2[nH]1` registered a melting point of 258 to 260 °C.

As for `C#CCCc1c(C)c(OC)c(C)c(C)c1OC`, the melting point is 54 °C. For the compound `COc1ccccc1NC(=O)Nc1nc(Nc2ccccc2-c2ccccc2)nc(N(CCC(=O)O)Cc2cccc(F)c2)n1`, the melting point was 115 to 128 °C. Under `CCc1nn(C2CCCC2)c2cc(C(=O)Nc3ccc(C(=O)O)cc3)ccc12` stands 249 to 251 °C; under `N#CC=CNCC(=O)c1cccc(Cl)c1Cl`, 125 to 127 °C.

For the compound `CCOC(=O)c1c(C)cc2cnc(-c3ccccc3C)nc2c1C`, the melting point lay within 56 to 57 °C. Under `CC1CN(c2ccccn2)N=C1N` (stereo not drawn) stands 149 to 151 °C; under `Oc1ccc(-c2cn(-c3ccncc3)c(-c3ccc(F)cc3)n2)cc1`, 230 to 231 °C. In the case of `CN1Cc2ccccc2N(C)S1(=O)=O`, the melting point lay in the range of 59 to 60 °C.

For the compound `Cc1ccc(C(=O)CC2CCCN(C)C2)cc1` (stereo not drawn), the melting point was in the range of 70 to 74 °C. Under `CCCC(=O)c1cc2c(=O)cc(C(=O)O)[nH]c2c(C)c1C` stands 267 to 269 °C. Under `C=CC(=O)OCCN(CCOC(=O)C=C)c1ccc(N=Nc2ccc([N+](=O)[O-])cc2)cc1` stands 91 to 93 °C; under `O=C(O)c1ccc(OCC2CN(c3ccccc3)C(=S)O2)cc1` (stereo not drawn), 214 to 215 °C; under `N#Cc1cn(Nc2c(Cl)cc(Cl)cc2Cl)c(=O)[nH]c1=O`, > 320 °C. Consider `CC(=Cc1cn(C)c2ccc3c(c12)CCCO3)[N+](=O)[O-]`, for which the melting point lay within 200 to 202 °C.

The compound `CN1C(=O)C=C[C@]2(C)c3ccc(-c4cccc([N+](=O)[O-])c4)cc3CC[C@@H]12` yielded a melting point of 175 to 177 °C.

In turn, `O=c1ccc(-c2c(-c3ccccc3)nn3ccccc23)nn1[C@@H]1CCCC[C@@H]1O` (relative stereo) came in with a melting point of 195 to 197 °C.

For the compound `Clc1ccc(-c2cc(Cl)c3ccccc3n2)cc1`, the melting point was 119 to 122 °C. In the case of `CN1C(=O)N(C)C(O)(c2ccccc2)c2cc(Cl)ccc21` (stereo not drawn), the melting point lay within 174 to 176 °C. Under `CC(C)NC1=NS(=O)(=O)c2c(cnn2C)N1` stands 242 to 243 °C; under `O=C(O)c1ccc(-c2nc(-c3ccccc3C(F)(F)F)cs2)cc1`, 225 to 227 °C.

In turn, `COc1ccc2oc(C(=O)CBr)cc2c1` returned a melting point of 86 to 87 °C. Under `CC(C)NC(=O)c1ccc(N2CCC(N3C(=O)OCc4ccccc43)CC2)nc1` stands > 230 °C; under `C#Cc1ccc(-c2c(F)cccc2F)cc1`, 81 to 83 °C; under `COc1ccc(CCNc2nc(N)c3nc(-c4ccco4)oc3n2)cc1OC`, 155 to 158 °C. Under `O=c1ccn(-c2cccc(C(F)(F)F)c2)nc1-c1ccnn1-c1ccccc1` stands 156 to 157 °C; under `CC1(C)C(C=C2CCCC2)C1C(=O)OC(C#N)c1ccc(F)c(Oc2ccccc2)c1` (stereo not drawn), 81 °C; under `COc1ccc(NN=C(C)C)cc1`, 163 to 164 °C. On to `CCn1nc(C)c(-c2ccc3c(c2)NC(=O)CO3)c1-c1ccc(F)cc1`, for which the melting point came out at 161 °C.

As for `COCc1ccc(C(=O)NC(C#N)n2cccn2)cc1` (stereo not drawn), the melting point fell in the range of 155 to 157 °C. Under `COc1ccc(C=CC(=O)CC(=O)C=Cc2ccc(OC)c(OC)c2)cc1OC` stands 129 to 131 °C; under `O=C(N[C@H](Cc1cccc(C(F)(F)F)c1)[C@@H](O)c1ccc(F)cc1)c1cccc2ccccc12` (racemic), 158 to 159 °C; under `O=C(Nc1ccccc1)NN1CCN(CCc2c[nH]c3ccccc23)CC1`, 168 to 171 °C. Under `COc1ccc(Oc2cccc(CCN(C)CCN(O)C(N)=O)c2)cc1` stands 87 to 88.5 °C; under `Cc1cc2c(cc1Oc1nnnn1-c1ccccc1)[C@@H](c1ccccc1)CN(C)CC2`, 140 to 142 °C; under `N=c1n(CCO)c2ccccc2n1-c1ccccc1`, 210 to 212 °C. Compound `COc1ccc2cccc(CO)c2c1` gave a melting point of 72 to 74 °C.

Regarding `O=C(O)/C=C/c1nncn1-c1ccc(F)cc1`, the melting point was in the range of 226 to 229 °C. Under `CCOC(=O)C(=O)CC(=O)C=Cc1ccc([N+](=O)[O-])cc1` stands 148 to 154 °C; under `CN1CCN(C2CC3C4CCC5CC6OC6CC5(C)C4CCC3(C)C2O)CC1` (stereo not drawn), 149 to 153 °C; under `CCN(CC)c1ccc2cc(-c3nc(C)c(C(=O)OC)s3)c(=O)oc2c1`, 252 to 253 °C. Under `COc1cc(COc2ccccc2CC(=O)O)ccc1OCc1nc(-c2ccccc2)oc1C` stands 165 to 166 °C. As to `Cc1ccccc1NC(=O)Nc1ccc(C(=O)N2CCCCc3sccc32)cc1`, the melting point lay in the range of 179 to 182 °C. For the compound `Nc1nc(-c2cc(Cl)ccc2Cl)nc(N2CCN(c3ccccc3)CC2)n1`, the melting point fell in the range of 203 to 206 °C. Under `Cc1ccc(C(Cl)=NOS(=O)(=O)CCCCl)cc1` stands 56 to 58 °C. Under `O=[N+]([O-])c1ccc(Cl)nc1N1CCNCC1` stands 50 to 53 °C. Under `COCNC(=O)C1CN(C(c2ccccc2)c2ccccc2)C1` stands 103 to 106 °C; under `CCOC(=O)c1cc2c(=O)c3cc(C(C)(C)O)ccc3oc2nc1N`, 263 to 264 °C. Compound `CC(=O)NCCC1CCc2ccc3nc(-c4ccccc4)oc3c21` (stereo not drawn) came in with a melting point of 124 to 126 °C. Under `c1ccc2cc(Cc3ncc(-c4ccc5cc(OCc6nnn[nH]6)ccc5c4)o3)ccc2c1` stands 179 to 182 °C; under `CC(C)(C)OC(=O)c1ncn2c1[C@@H]1CCCN1C(=O)c1c(Cl)cccc1-2`, 216 to 217 °C. Under `COc1cc(Nc2c(C#N)cnc3cc(-c4cnc(C=O)n4C)ccc23)c(Cl)cc1Cl` stands 186 to 189 °C. Under `Cc1ccc2nc(-c3ccc(C=O)cc3)cn2c1` stands 210 to 211 °C; under `CNC(=O)COc1cc(OC)ccc1O`, 136 to 138 °C; under `CC(C)Cc1cc(NC(=O)c2nccnc2Cl)ccc1C(C(F)(F)F)C(F)(F)F`, 128 to 129 °C.

On to `CCC(Sc1cc2ccccc2n1C)(C(=O)OC)c1ccccc1` (stereo not drawn), for which the melting point lay within 90 to 91 °C. Under `CCOc1ccc(-c2ccc(=O)[nH]n2)cc1OC` stands 172 °C; under `c1ccc(-n2ncnc2-c2ccncc2)cc1`, 92 to 94 °C; under `COc1cc(Nc2c(C#N)cnc3cc(/C=C/CCO)c(OC)cc23)c(Cl)cc1Cl`, 186 to 188 °C. Under `Cc1cc(C#N)cc(C)c1Oc1nc(Nc2ccc(C#N)cc2)ncc1N` stands > 300 °C; under `CN(C)S(=O)(=O)n1c(N)nc2ccc(C(=CCl)c3ccccc3)cc21`, 207 to 215 °C.

In turn, `Cc1nc(-c2ccccc2F)cn1-c1ccc(COc2ncc(C(F)(F)F)cc2Cl)cc1` displayed a melting point of 109 °C.

Compound `Cc1noc(CCc2c(-c3ccccc3)c(=O)[nH]c3cc(Cl)ccc23)n1` yielded a melting point of 235 to 238 °C. Under `CSC(=NC#N)NCCSCc1ccc(Nc2ccccc2)nc1` stands 180 to 182 °C; under `CC(=O)c1cn(C)cc(-c2cccc(C(F)(F)F)c2)c1=O`, 130 to 131 °C; under `CNC(=S)c1cnn(-c2cccc(Cl)c2)c1Cl`, 128 to 130 °C. Under `CCOc1ccc(C2=NNC(=O)CC2)cc1OCC` stands 142 to 143 °C; under `CN(C)Cc1nnc2n1-c1ccc(Cl)cc1C(c1ccc(Cl)cc1)=[N+]([O-])C2`, 260 °C; under `CC(C)c1ccccc1NC(=O)c1ccccc1SSc1ccccc1C(=O)Nc1ccccc1C(C)C`, 235 to 237 °C. `CN(C)C(=O)c1ccc2ccccc2c1-c1ccccc1` gave a melting point of 86 to 87 °C. Under `Cn1c(=O)cc(C(N)=S)c2cc(C(=O)c3ccc(Cl)cc3)ccc21` stands 210 °C.

`CC(C)Oc1cc(F)c2c(c1)Oc1cc(F)ccc1S2(=O)=O` showed a melting point of 148 to 151 °C. Regarding `O=C1CC(c2cccc(-c3nc(CCl)co3)c2)=Nc2ccc(-n3cccc3)cc2N1`, the melting point was 206 to 207 °C. Under `COC(=O)c1nc(Nc2cccc(C(F)(F)F)c2)sc1-c1ccccc1` stands 147 to 149 °C. Under `C/C(=N\OC(=O)c1ccc(CNC(=O)OC(C)(C)C)cc1)[C@H]1CC[C@H]2[C@@H]3CCC4=CC(=O)CC[C@]4(C)[C@H]3CC[C@]12C` stands 166 to 168 °C.

Consider `CC(C)=CCc1cc(C=CC(=O)c2ccc(O)cc2O)ccc1O`, for which the melting point amounted to 167 °C. Under `O=C(NCc1cccnc1)c1ccc2n1Cc1ccccc1N(C(=O)COc1ccc(Cl)cc1)C2` stands 169 to 171 °C. As for `Cc1ccc(NCC2CCN(C3CCCC3)CC2)c(C(=O)Nc2ccc(Cl)cn2)c1`, the melting point was 173 to 175 °C. With `COc1ccc(NC(=O)c2ccc(F)c(F)c2)cc1NS(=O)(=O)c1ccc(N)cc1`, the melting point lay within 229 to 231 °C. Under `CC(C(C#N)C(=O)O)C(C)(C)C` (stereo not drawn) stands 68 to 78 °C; under `CC1CC(=O)c2c(OS(=O)(=O)c3cccs3)ccc(-c3nccs3)c2C1` (stereo not drawn), 111 to 113 °C; under `Cc1cn(-c2cc3nc(NN)c(=O)n(OCc4ccccc4)c3cc2C(F)(F)F)c(-c2ccccc2)n1`, 127 to 130 °C.
